What was measured:
Format in all cases: in vivo
barnyard grass [1] = experiment: Test Example 1: weedkilling efficacy, preemergent weed treatment in the submerged state; A: barnyard grass
Source text: (§1) Weedkilling efficacy test on preemergent weed treatment in the submerged state
(§2) Alluvial soil was introduced into 1/10,000 Are Wagner pots, and 4 cm depth submerged conditions were created by addition of water and mixing. Seeds of barnyard grass, bulrush and oval-leafed pondweed were mixed and sown into the aforesaid cups, then 2.5 leaf stage rice seedlings were transplanted. On the sowing day, emulsions of compounds of the present invention prepared according to compounding example 2 were diluted with water to give the specified dosages and applied onto the water surface. The plants were grown after placing the cups in a greenhouse at 25 to 30° C. 3 weeks after the pesticide treatment the effect on each type of plant was investigated on the basis of the following assessment criteria.
(§3) A: barnyard grass, B: bulrush, C: oval-leafed pondweed, D: crabgrass, E: green foxtail, F: barnyard grass, G: wild oat, H: black-grass, I: Italian ryegrass, J: common wind-grass, K: Indian mallow, L: redroot pigweed, M: fig-leafed goosefoot, N: chickweed, O: catchweed, p: birds-eye speedwell, a: transplanted rice, b: directly sown rice, c: corn, d: soybean, e: wheat, f: beet, g: rapeseed
(§4) Further, pesticide dosage (g/ha) indicates the concentration regulated such that treatment was with only the stated number of grams (g), when calculated per hectare (ha).

bulrush [2] = experiment: Test Example 1: weedkilling efficacy, preemergent weed treatment in the submerged state; B: bulrush
Source text: as §1, §2, §3, §4

oval-leafed pondweed [3] = experiment: Test Example 1: weedkilling efficacy, preemergent weed treatment in the submerged state; C: oval-leafed pondweed
Source text: as §1, §2, §3, §4

transplanted rice = experiment: Test Example 1: preemergent weed treatment in the submerged state, effect on crop; a: transplanted rice
Source text: as §1, §2, §3, §4

barnyard grass [4] = experiment: Test Example 2: weedkilling efficacy, growth period weed treatment in the submerged state; A: barnyard grass
Method: (§5) Weedkilling efficacy test on growth period weed treatment in the submerged state
as §2, with “and the plants were grown by placing in a greenhouse at 25 to 30° C. When the barnyard grass, bulrush and oval-leafed pondweed had reached the 1-2” for “then 2.5”, “stage,” for “stage rice seedlings were transplanted. On the sowing day,”, “surface.” for “surface. The plants were grown after placing the cups in a greenhouse at 25 to 30° C.”, “the” for “the following”, “criteria of test example 1.” for “criteria.”
as §3, §4

bulrush [5] = experiment: Test Example 2: weedkilling efficacy, growth period weed treatment in the submerged state; B: bulrush
Method: as §5
as §2, with “and the plants were grown by placing in a greenhouse at 25 to 30° C. When the barnyard grass, bulrush and oval-leafed pondweed had reached the 1-2” for “then 2.5”, “stage,” for “stage rice seedlings were transplanted. On the sowing day,”, “surface.” for “surface. The plants were grown after placing the cups in a greenhouse at 25 to 30° C.”, “the” for “the following”, “criteria of test example 1.” for “criteria.”
as §3, §4

oval-leafed pondweed [6] = experiment: Test Example 2: weedkilling efficacy, growth period weed treatment in the submerged state; C: oval-leafed pondweed
Method: as §5
as §2, with “and the plants were grown by placing in a greenhouse at 25 to 30° C. When the barnyard grass, bulrush and oval-leafed pondweed had reached the 1-2” for “then 2.5”, “stage,” for “stage rice seedlings were transplanted. On the sowing day,”, “surface.” for “surface. The plants were grown after placing the cups in a greenhouse at 25 to 30° C.”, “the” for “the following”, “criteria of test example 1.” for “criteria.”
as §3, §4

Row | Compound | A: barnyard grass, weed kill grade (barnyard grass [1]; treatment dosage 320 g/ha) | B: bulrush, weed kill grade (bulrush [2]; treatment dosage 320 g/ha) | C: oval-leafed pondweed, weed kill grade (oval-leafed pondweed [3]; treatment dosage 320 g/ha) | a: transplanted rice, effect on crop grade (transplanted rice; treatment dosage 320 g/ha) | A (barnyard grass) weedkilling efficacy grade (barnyard grass [4]; treatment dosage 320 g/ha) | B (bulrush) weedkilling efficacy grade (bulrush [5]; treatment dosage 320 g/ha) | C (oval-leafed pondweed) weedkilling efficacy grade (oval-leafed pondweed [6]; treatment dosage 320 g/ha) | A: barnyard grass, weed kill grade (barnyard grass [1]; treatment dosage 252 g/ha) | B: bulrush, weed kill grade (bulrush [2]; treatment dosage 252 g/ha) | C: oval-leafed pondweed, weed kill grade (oval-leafed pondweed [3]; treatment dosage 252 g/ha) | a: transplanted rice, effect on crop grade (transplanted rice; treatment dosage 252 g/ha) | A (barnyard grass) weedkilling efficacy grade (barnyard grass [4]; treatment dosage 252 g/ha) | B (bulrush) weedkilling efficacy grade (bulrush [5]; treatment dosage 252 g/ha) | C (oval-leafed pondweed) weedkilling efficacy grade (oval-leafed pondweed [6]; treatment dosage 252 g/ha) | other results
1 | CC(C)(C(=O)Nc1cccc(OC(F)F)n1)N1COCN(c2ccccc2)C1=O [A-2-54] | 5 (weed kill ratio 90% or more, (practically complete withering)) | 5 (weed kill ratio 90% or more, (practically complete withering)) | 4 (weed kill ratio 70% or more, less than 90%) | 1 (weed kill ratio 5% or more, less than 20%) | 3 (weed kill ratio 40% or more, less than 70%) | 4 (weed kill ratio 70% or more, less than 90%) | 3 (weed kill ratio 40% or more, less than 70%) | – | – | – | – | – | – | – | –
2 | CC(C)(C(=O)Nc1cc(Oc2ccccc2)ccn1)N1COCN(c2ccccc2)C1=O [A-2-55] | – | – | – | – | – | – | – | – | – | – | – | – | – | – | A: barnyard grass, weed kill grade (barnyard grass [1]; treatment dosage 234 g/ha): 5 (weed kill ratio 90% or more, (practically complete withering)); B: bulrush, weed kill grade (bulrush [2]; treatment dosage 234 g/ha): 5 (weed kill ratio 90% or more, (practically complete withering)); C: oval-leafed pondweed, weed kill grade (oval-leafed pondweed [3]; treatment dosage 234 g/ha): 5 (weed kill ratio 90% or more, (practically complete withering)); a: transplanted rice, effect on crop grade (transplanted rice; treatment dosage 234 g/ha): 0 (weed kill ratio 5% or less (practically no effect)); A (barnyard grass) weedkilling efficacy grade (barnyard grass [4]; treatment dosage 234 g/ha): 0 (weed kill ratio 5% or less (practically no effect)); B (bulrush) weedkilling efficacy grade (bulrush [5]; treatment dosage 234 g/ha): 2 (weed kill ratio 20% or more, less than 40%); C (oval-leafed pondweed) weedkilling efficacy grade (oval-leafed pondweed [6]; treatment dosage 234 g/ha): 5 (weed kill ratio 90% or more, (practically complete withering))
3 | Cc1cc(C)nc(NC(=O)C(C)(C)N2COCN(c3ccccc3)C2=O)c1 [A-2-56] | – | – | – | – | – | – | – | 5 (weed kill ratio 90% or more, (practically complete withering)) | 5 (weed kill ratio 90% or more, (practically complete withering)) | 5 (weed kill ratio 90% or more, (practically complete withering)) | 0 (weed kill ratio 5% or less (practically no effect)) | 4 (weed kill ratio 70% or more, less than 90%) | 5 (weed kill ratio 90% or more, (practically complete withering)) | 3 (weed kill ratio 40% or more, less than 70%) | –
4 | Cc1cc(NC(=O)C(C)(C)N2COCN(c3ccccc3)C2=O)nc(C(F)(F)F)c1 [A-2-57] | 5 (weed kill ratio 90% or more, (practically complete withering)) | 5 (weed kill ratio 90% or more, (practically complete withering)) | 5 (weed kill ratio 90% or more, (practically complete withering)) | 0 (weed kill ratio 5% or less (practically no effect)) | 5 (weed kill ratio 90% or more, (practically complete withering)) | 5 (weed kill ratio 90% or more, (practically complete withering)) | 5 (weed kill ratio 90% or more, (practically complete withering)) | – | – | – | – | – | – | – | –
5 | Cc1cc(C(F)(F)F)cc(NC(=O)C(C)(C)N2COCN(c3ccccc3)C2=O)n1 [A-2-58] | 5 (weed kill ratio 90% or more, (practically complete withering)) | 5 (weed kill ratio 90% or more, (practically complete withering)) | 5 (weed kill ratio 90% or more, (practically complete withering)) | 1 (weed kill ratio 5% or more, less than 20%) | 5 (weed kill ratio 90% or more, (practically complete withering)) | 5 (weed kill ratio 90% or more, (practically complete withering)) | 5 (weed kill ratio 90% or more, (practically complete withering)) | – | – | – | – | – | – | – | –
6 | CCOc1cc(C(F)(F)F)cc(NC(=O)C(C)(C)N2COCN(c3ccccc3)C2=O)n1 [A-2-60] | 5 (weed kill ratio 90% or more, (practically complete withering)) | 5 (weed kill ratio 90% or more, (practically complete withering)) | 5 (weed kill ratio 90% or more, (practically complete withering)) | 2 (weed kill ratio 20% or more, less than 40%) | 5 (weed kill ratio 90% or more, (practically complete withering)) | 5 (weed kill ratio 90% or more, (practically complete withering)) | 5 (weed kill ratio 90% or more, (practically complete withering)) | – | – | – | – | – | – | – | –
7 | CC(C)(C(=O)Nc1cncc(F)c1)N1COCN(c2ccccc2)C1=O [A-3-01] | – | – | – | – | – | – | – | 5 (weed kill ratio 90% or more, (practically complete withering)) | 5 (weed kill ratio 90% or more, (practically complete withering)) | 4 (weed kill ratio 70% or more, less than 90%) | 1 (weed kill ratio 5% or more, less than 20%) | 1 (weed kill ratio 5% or more, less than 20%) | 5 (weed kill ratio 90% or more, (practically complete withering)) | 2 (weed kill ratio 20% or more, less than 40%) | –
8 | CC(C)(C(=O)Nc1cncc(Cl)c1)N1COCN(c2ccccc2)C1=O [A-3-02] | – | – | – | – | – | – | – | 5 (weed kill ratio 90% or more, (practically complete withering)) | 5 (weed kill ratio 90% or more, (practically complete withering)) | 5 (weed kill ratio 90% or more, (practically complete withering)) | 2 (weed kill ratio 20% or more, less than 40%) | 2 (weed kill ratio 20% or more, less than 40%) | 5 (weed kill ratio 90% or more, (practically complete withering)) | 3 (weed kill ratio 40% or more, less than 70%) | –
9 | CC(C)(C(=O)Nc1cncc(Br)c1)N1COCN(c2ccccc2)C1=O [A-3-03] | – | – | – | – | – | – | – | 5 (weed kill ratio 90% or more, (practically complete withering)) | 5 (weed kill ratio 90% or more, (practically complete withering)) | 5 (weed kill ratio 90% or more, (practically complete withering)) | 0 (weed kill ratio 5% or less (practically no effect)) | 3 (weed kill ratio 40% or more, less than 70%) | 5 (weed kill ratio 90% or more, (practically complete withering)) | 4 (weed kill ratio 70% or more, less than 90%) | –
10 | CC(C)(C(=O)Nc1cc(Br)cnc1F)N1COCN(c2ccccc2)C1=O [A-3-04] | – | – | – | – | – | – | – | 5 (weed kill ratio 90% or more, (practically complete withering)) | 5 (weed kill ratio 90% or more, (practically complete withering)) | 5 (weed kill ratio 90% or more, (practically complete withering)) | 3 (weed kill ratio 40% or more, less than 70%) | 5 (weed kill ratio 90% or more, (practically complete withering)) | 5 (weed kill ratio 90% or more, (practically complete withering)) | 3 (weed kill ratio 40% or more, less than 70%) | –
